Assay results from PubChem BioAssay AID330 (DTP/NCI, 2004).
Several values for one entry are separate records, joined by “and”; a condition that tells them apart may be missing. Equal entries are not always repeated. Toxic doses and inconclusive results are not listed. How the source made its calls: active means survival T/C of 150% or more; inactive means T/C below 125% in these data. Peptide text beside a SMILES is read from it. * marks the point of attachment. OtBu = CC(C)(C)O*

Test system: P388 leukemia ip, CD2F1 mice, survival T/C
Assay: NCI In Vivo Anticancer Drug Screen. Data for tumor model P388 Leukemia (intraperitoneal) in CD2F1 (CDF1) mice
Conditions: endpoint: median survival time, higher = longer survival
Summary of the method: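 Mice carrying the transplanted tumor received test compound or vehicle. Survival was recorded in each group, and the value is the treated-group measurement divided by that of the vehicle-treated control group.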

[1] = dose: 50.0 mg/kg/injection, schedule: Q01DX009 (ip), vehicle: saline
[2] = dose: 100.0 mg/kg/injection, schedule: Q04DX003 (ip), vehicle: saline with Tween-80
[3] = dose: 200.0 mg/kg/injection, schedule: Q04DX003 (ip), vehicle: saline with Tween-80
[4] = dose: 400.0 mg/kg/injection, schedule: Q04DX003 (ip), vehicle: saline with Tween-80
[5] = dose: 50.0 mg/kg/injection, schedule: Q01DX005 (ip), vehicle: Klucel (hydroxypropylcellulose) (HPC)
[6] = dose: 100.0 mg/kg/injection, schedule: Q01DX005 (ip), vehicle: Klucel (hydroxypropylcellulose) (HPC)
[7] = dose: 200.0 mg/kg/injection, schedule: Q01DX005 (ip), vehicle: Klucel (hydroxypropylcellulose) (HPC)
[8] = dose: 25.0 mg/kg/injection, schedule: Q01DX009 (ip), vehicle: saline with Tween-80
[9] = dose: 50.0 mg/kg/injection, schedule: Q01DX009 (ip), vehicle: saline with Tween-80
[10] = dose: 100.0 mg/kg/injection, schedule: Q01DX001 (ip), vehicle: saline with Tween-80
[11] = dose: 200.0 mg/kg/injection, schedule: Q01DX001 (ip), vehicle: saline with Tween-80
[12] = dose: 400.0 mg/kg/injection, schedule: Q01DX001 (ip), vehicle: saline with Tween-80
[13] = dose: 100.0 mg/kg/injection, schedule: Q01DX009 (ip), vehicle: saline with Tween-80
[14] = dose: 100.0 mg/kg/injection, schedule: Q01DX009 (ip), vehicle: saline
[15] = dose: 200.0 mg/kg/injection, schedule: Q01DX009 (ip), vehicle: saline

Measured: T/C

CCC1CN1P(=O)(OCCC#N)N1CC1CC (stereo unspecified)
inactive: dose: 12.5 mg/kg/injection, schedule: Q01DX009 (ip), vehicle: saline 100 % of control | dose: 25.0 mg/kg/injection, schedule: Q01DX009 (ip), vehicle: saline 104 % of control | [1] 109 % of control | [2] 104 % of control | [3] 100 % of control | [4] 104 % of control

CC1(C)CC(=O)C(C(c2ccccc2O)C2C(=O)CC(C)(C)CC2=O)C(=O)C1
inactive: [5] 102 % of control | [6] 102 % of control | [7] 102 % of control

O=C1c2ccccc2C(=O)N1Cc1ccccc1
inactive: [2] 104 % of control | [3] 95 % of control | [4] 100 % of control

CC1=CC(C)(C(Cl)(Cl)Cl)C(C)=CC1=O (stereo unspecified)
inactive: [5] 98 % of control | [6] 99 % of control | [7] 101 % of control

Cc1ccnc(NCCCNc2nccc(C)n2)n1
inactive: [5] 102 % of control | [6] 96 % of control | [7] 88 % of control

Cc1cc(N=C2C=CC(=[N+](C)C)C=C2)c(N)cc1N
inactive: [8] 107 % of control | [9] 107 % of control

COc1cc(O)c(/C=N/NC(=S)NC23CC4CC(CC(C4)C2)C3)c(OC)c1
inactive: dose: 7.5 mg/kg/injection, schedule: Q01DX005 (ip), vehicle: saline with Tween-80 105 % of control | dose: 15.0 mg/kg/injection, schedule: Q01DX005 (ip), vehicle: saline with Tween-80 101 % of control and 103 % of control | dose: 60.0 mg/kg/injection, schedule: Q01DX005 (ip), vehicle: saline with Tween-80 93 % of control

CCOC(=O)C(=CNc1cccc(N(C)C)c1)C(=O)OCC
inactive: dose: 50.0 mg/kg/injection, schedule: Q01DX005 (ip), vehicle: saline with Tween-80 100 % of control | dose: 100.0 mg/kg/injection, schedule: Q01DX005 (ip), vehicle: saline with Tween-80 92 % of control | dose: 200.0 mg/kg/injection, schedule: Q01DX005 (ip), vehicle: saline with Tween-80 100 % of control

CN(C)C1(c2ccc3ccccc3c2)CSC1
inactive: [10] 100 % of control | [11] 100 % of control | [12] 96 % of control

COC1CC2C=CC3C4OC2(/C(C)=C/C(C)C(C(C)O)OC1=O)C3C(O)C(C)C4OC(=O)c1ccc[nH]1 (stereo unspecified)
inactive: dose: 12.5 mg/kg/injection, schedule: Q01DX005 (ip), vehicle: Klucel (hydroxypropylcellulose) (HPC) 104 % of control | dose: 25.0 mg/kg/injection, schedule: Q01DX005 (ip), vehicle: Klucel (hydroxypropylcellulose) (HPC) 99 % of control | [5] 95 % of control | [6] 99 % of control | [7] 98 % of control

COC(=O)C(C)NC(=O)C(Cc1c[nH]c2ccccc12)NC(=O)OC(C)(C)C (stereo unspecified)
inactive: dose: 12.5 mg/kg/injection, schedule: Q01DX009 (ip), vehicle: other 88 % of control | dose: 25.0 mg/kg/injection, schedule: Q01DX009 (ip), vehicle: other 89 % of control | dose: 50.0 mg/kg/injection, schedule: Q01DX009 (ip), vehicle: other 100 % of control | dose: 100.0 mg/kg/injection, schedule: Q01DX009 (ip), vehicle: other 101 % of control | dose: 200.0 mg/kg/injection, schedule: Q01DX009 (ip), vehicle: other 117 % of control

Cc1ccc2ccc(CC(O)(c3ccccc3)c3ccccc3)nc2c1
inactive: [9] 100 % of control | [13] 88 % of control

Cc1cc(=O)c2c(ccc3[nH]c(-c4ccco4)nc32)[nH]1
inactive: [10] 94 % of control | [11] 100 % of control | [12] 92 % of control

CC(C)CC(NC(=O)C(Cc1ccccc1)NC(=O)C1CCCN1)C(=O)OC(C)(C)C (stereo not drawn) (H-Pro-Phe-Leu-OtBu; configuration not given here)
inactive: [5] 102 % of control | [6] 94 % of control | [7] 94 % of control

C=C1C(=O)OC2/C=C(\C)C(O)/C=C\C(C)(O)CC(OC(=O)/C(C)=C/C)C12 (stereo unspecified)
inactive: dose: 10.0 mg/kg/injection, schedule: Q01DX009 (ip), vehicle: saline 114 % of control | dose: 20.0 mg/kg/injection, schedule: Q01DX009 (ip), vehicle: saline 101 % of control | dose: 40.0 mg/kg/injection, schedule: Q01DX009 (ip), vehicle: saline 108 % of control

COc1ccc2nc3cc(Cl)ccc3c(NCCOCCO)c2c1
inactive: [9] 101 % of control | [13] 109 % of control

C=CCn1c(-c2cccc(O)c2)n[nH]c1=S
inactive: [8] 104 % of control | [9] 115 % of control | [13] 96 % of control

O=C1C=C2OCOC2=C/C1=C/C=C/c1ccccc1
inactive: dose: 2.5 mg/kg/injection, schedule: Q01DX009 (ip), vehicle: saline with Tween-80 102 % of control | dose: 5.0 mg/kg/injection, schedule: Q01DX009 (ip), vehicle: saline with Tween-80 101 % of control | dose: 10.0 mg/kg/injection, schedule: Q01DX009 (ip), vehicle: saline with Tween-80 103 % of control

COC(=O)/C=C1\Sc2cc(F)ccc2NC1=O
inactive: [9] 92 % of control | [13] 98 % of control | dose: 200.0 mg/kg/injection, schedule: Q01DX009 (ip), vehicle: saline with Tween-80 100 % of control

Cc1cc(N=Nc2ccc(-c3ccc(N=Nc4ccc(O)c(C(=O)O)c4)cc3)cc2)c(N)c(N=Nc2cc(C(=O)O)ccc2Cl)c1N
inactive: dose: 50.0 mg/kg/injection, schedule: Q01DX005 (ip), vehicle: saline 104 % of control | dose: 100.0 mg/kg/injection, schedule: Q01DX005 (ip), vehicle: saline 104 % of control | dose: 200.0 mg/kg/injection, schedule: Q01DX005 (ip), vehicle: saline 90 % of control

N/N=C1/C(=O)N(c2cccc([N+](=O)[O-])c2)C(=O)C1C(=O)Nc1cccc([N+](=O)[O-])c1 (stereo unspecified)
inactive: dose: 37.5 mg/kg/injection, schedule: Q01DX005 (ip), vehicle: saline with Tween-80 101 % of control | dose: 75.0 mg/kg/injection, schedule: Q01DX005 (ip), vehicle: saline with Tween-80 100 % of control | dose: 150.0 mg/kg/injection, schedule: Q01DX005 (ip), vehicle: saline with Tween-80 105 % of control

O=C1OC(CCCl)CN1Cc1ccccc1 (stereo unspecified)
inactive: [1] 103 % of control | [14] 103 % of control | [15] 98 % of control

CCC(c1ccc(OCC(=O)NCCCl)cc1)C(CC)c1ccc(OCC(=O)NCCCl)cc1 (stereo unspecified)
inactive: [1] 97 % of control | [14] 93 % of control | [15] 88 % of control

COc1cc(CO)c(Br)c(OC)c1OC
inactive: dose: 100.0 mg/kg/injection, schedule: Q01DX001 (ip), vehicle: Klucel (hydroxypropylcellulose) (HPC) 100 % of control | dose: 200.0 mg/kg/injection, schedule: Q01DX001 (ip), vehicle: Klucel (hydroxypropylcellulose) (HPC) 100 % of control | dose: 400.0 mg/kg/injection, schedule: Q01DX001 (ip), vehicle: Klucel (hydroxypropylcellulose) (HPC) 106 % of control

Cc1cc(=O)oc2c(C)c3oc4c(c3cc12)CN(C)CC4
inactive: [5] 100 % of control | [6] 117 % of control

COCC1(C)CCCC2(C)C3=C(CCC(=O)C3)CCC12 (stereo unspecified)
inactive: dose: 100.0 mg/kg/injection, schedule: Q04DX003 (ip), vehicle: Klucel (hydroxypropylcellulose) (HPC) 99 % of control | dose: 200.0 mg/kg/injection, schedule: Q04DX003 (ip), vehicle: Klucel (hydroxypropylcellulose) (HPC) 101 % of control | dose: 400.0 mg/kg/injection, schedule: Q04DX003 (ip), vehicle: Klucel (hydroxypropylcellulose) (HPC) 96 % of control
